The values below come from ChEMBL document CHEMBL1152890, “Synthesis and evaluation of a novel series of heterocyclic oleanolic acid derivatives with anti-osteoclast formation activity” (Eur J Med Chem, 2009).

Assay type in all cases: functional
The nature of experiment [1]: Antiosteoclast activity in ICR mouse osteoblast like cells co-cultured with bone marrow cells assessed as effect on 1-alpha,25(OH)2D3-induced TRAP-positive osteoclast like multinucleated cell formation at 20 uM after 6 days medium replaced every 2 days relative to control.
Experiment [2] in a line: Antiosteoclast activity in ICR mouse osteoblast like cells co-cultured with bone marrow cells assessed as effect on 1-alpha,25(OH)2D3-induced TRAP-positive osteoclast like multinucleated cell formation at 2 uM after 6 days medium replaced every 2 days relative to control.
The nature of experiment [3]: Antiosteoclast activity in ICR mouse osteoblast like cells co-cultured with bone marrow cells assessed as effect on 1-alpha,25(OH)2D3-induced TRAP-positive osteoclast like multinucleated cell formation at 200 uM after 6 days medium replaced every 2 days relative to control.
The nature of experiment [4]: Antiosteoclast activity in ICR mouse osteoblast like cells co-cultured with bone marrow cells assessed as recovery of 1-alpha,25(OH)2D3-induced TRAP-positive osteoclast like multinucleated cell formation at 20 uM after 6 days drug removal after 2 days relative to control.
A short description of experiment [5]: Antiosteoclast activity in ICR mouse osteoblast like cells co-cultured with bone marrow cells assessed as recovery of 1-alpha,25(OH)2D3-induced TRAP-positive osteoclast like multinucleated cell formation at 2 uM after 6 days drug removal after 2 days relative to control.

`COC(=O)[C@H](C)NC(=O)[C@]12CCC(C)(C)C[C@H]1C1=CC[C@@H]3[C@@]4(C)Cc5nc6ccccc6nc5C(C)(C)[C@@H]4CC[C@@]3(C)[C@]1(C)CC2`: the Activity in experiment [1] is 31.2%; in experiment [2] it was 25.7%; in experiment [3] it was 77%; in experiment [4], 97.7%.
On to `CC1(C)CC[C@]2(C(=O)O)CC[C@]3(C)C(=CC[C@@H]4[C@@]5(C)Cc6nc(-c7ccccc7)c(-c7ccccc7)nc6C(C)(C)[C@@H]5CC[C@]43C)[C@@H]2C1`, for which the Activity in experiment [1] stood at 28.1%; in experiment [2] it was 76.2%; in experiment [4], 94.5%.
On the same counts, the results for `CC(C)C[C@H](NC(=O)[C@]12CCC(C)(C)C[C@H]1C1=CC[C@@H]3[C@@]4(C)Cc5c([nH]c6ccc(Cl)cc56)C(C)(C)[C@@H]4CC[C@@]3(C)[C@]1(C)CC2)C(=O)O` are 0%, 71.6% and 0%.
The matching figures for `CC[C@H](C)[C@H](NC(=O)[C@]12CCC(C)(C)C[C@H]1C1=CC[C@@H]3[C@@]4(C)Cc5c([nH]c6ccc(Cl)cc56)C(C)(C)[C@@H]4CC[C@@]3(C)[C@]1(C)CC2)C(=O)O`: 0%, 86.9% and 0%.
In the case of `COC(=O)[C@H](Cc1ccccc1)NC(=O)[C@]12CCC(C)(C)C[C@H]1C1=CC[C@@H]3[C@@]4(C)Cc5nccnc5C(C)(C)[C@@H]4CC[C@@]3(C)[C@]1(C)CC2`, the Activity in experiment [1] amounted to 29.6%; in experiment [2], 82.8%; in experiment [4], 89.5%; in experiment [5], 95.6%.
Take `CC(C)C[C@H](NC(=O)[C@]12CCC(C)(C)C[C@H]1C1=CC[C@@H]3[C@@]4(C)Cc5c([nH]c6ccccc56)C(C)(C)[C@@H]4CC[C@@]3(C)[C@]1(C)CC2)C(=O)O`: the Activity in experiment [1] is 0%; in experiment [2], 98.2%; in experiment [4], 80.5%.
Turning to `CC[C@H](C)[C@H](NC(=O)[C@]12CCC(C)(C)C[C@H]1C1=CC[C@@H]3[C@@]4(C)Cc5nccnc5C(C)(C)[C@@H]4CC[C@@]3(C)[C@]1(C)CC2)C(=O)OC`, the Activity was found to be 0.7% in experiment [1], 0.7% in experiment [2], 101% in experiment [3] and 96.2% in experiment [5].
For the compound `COC(=O)[C@@H](NC(=O)[C@]12CCC(C)(C)C[C@H]1C1=CC[C@@H]3[C@@]4(C)Cc5nc6ccccc6nc5C(C)(C)[C@@H]4CC[C@@]3(C)[C@]1(C)CC2)C(C)C`, the Activity in experiment [1] came out at 36.3%; in experiment [2] it was 37.1%; in experiment [3] it was 93%; in experiment [4] it was 94.6%.
The matching figures for `COC(=O)[C@H](Cc1ccccc1)NC(=O)[C@]12CCC(C)(C)C[C@H]1C1=CC[C@@H]3[C@@]4(C)Cc5nc6ccccc6nc5C(C)(C)[C@@H]4CC[C@@]3(C)[C@]1(C)CC2`: 34.2%, 53.6%, 93% and 93.5%.
`COC(=O)CNC(=O)[C@]12CCC(C)(C)C[C@H]1C1=CC[C@@H]3[C@@]4(C)Cc5c([nH]c6ccccc56)C(C)(C)[C@@H]4CC[C@@]3(C)[C@]1(C)CC2`: the Activity stood at 0% in experiment [1]; 32.3% in experiment [2]; 86.3% in experiment [3]; 82.9% in experiment [4]; 96.1% in experiment [5].
Regarding `CC1(C)CC[C@]2(C(=O)NCC(=O)O)CC[C@]3(C)C(=CC[C@@H]4[C@@]5(C)Cc6c([nH]c7ccc(Cl)cc67)C(C)(C)[C@@H]5CC[C@]43C)[C@@H]2C1`, the values for the Activity in experiment [1], in experiment [2] and in experiment [4] were 0%, 74.2% and 0%, respectively.
For the compound `COC(=O)[C@H](Cc1ccccc1)NC(=O)[C@]12CCC(C)(C)C[C@H]1C1=CC[C@@H]3[C@@]4(C)Cc5c([nH]c6ccc(Cl)cc56)C(C)(C)[C@@H]4CC[C@@]3(C)[C@]1(C)CC2`, the Activity in experiment [1] was 77.4%; in experiment [4] it was 70.7%; in experiment [5], 95.2%.
In the case of `CC(C)[C@H](NC(=O)[C@]12CCC(C)(C)C[C@H]1C1=CC[C@@H]3[C@@]4(C)Cc5c([nH]c6ccc(Cl)cc56)C(C)(C)[C@@H]4CC[C@@]3(C)[C@]1(C)CC2)C(=O)O`, the Activity in experiment [1] amounted to 0%; in experiment [2] it was 80%; in experiment [4], 0%.
Consider `COC(=O)[C@H](CC(C)C)NC(=O)[C@]12CCC(C)(C)C[C@H]1C1=CC[C@@H]3[C@@]4(C)Cc5nccnc5C(C)(C)[C@@H]4CC[C@@]3(C)[C@]1(C)CC2`, for which the Activity in experiment [1] was 2.8%; in experiment [2], 1.7%; in experiment [3] it was 96.4%; in experiment [5] it was 95.7%.
In the case of `COC(=O)[C@H](CC(C)C)NC(=O)[C@]12CCC(C)(C)C[C@H]1C1=CC[C@@H]3[C@@]4(C)Cc5nc6ccccc6nc5C(C)(C)[C@@H]4CC[C@@]3(C)[C@]1(C)CC2`, the Activity turned out to be 14% in experiment [1], 55.1% in experiment [2], 91.2% in experiment [3] and 97.3% in experiment [4].
The matching figures for `CC[C@H](C)[C@H](NC(=O)[C@]12CCC(C)(C)C[C@H]1C1=CC[C@@H]3[C@@]4(C)Cc5nc6ccccc6nc5C(C)(C)[C@@H]4CC[C@@]3(C)[C@]1(C)CC2)C(=O)O`: 30.6%, 58.7%, 95% and 94.7%.
Regarding `COC(=O)[C@H](C)NC(=O)[C@]12CCC(C)(C)C[C@H]1C1=CC[C@@H]3[C@@]4(C)Cc5c([nH]c6ccccc56)C(C)(C)[C@@H]4CC[C@@]3(C)[C@]1(C)CC2`, the results for the Activity in experiment [1], in experiment [2] and in experiment [4] were 0%, 99.4% and 81.5%, respectively.
On to `CC(C)C[C@H](NC(=O)[C@]12CCC(C)(C)C[C@H]1C1=CC[C@@H]3[C@@]4(C)Cc5nc6ccccc6nc5C(C)(C)[C@@H]4CC[C@@]3(C)[C@]1(C)CC2)C(=O)O`, for which the Activity in experiment [1] amounted to 45.9%; in experiment [2] it was 58.3%; in experiment [3], 86.3%; in experiment [4], 92.3%.
In the case of `CC(C)C[C@H](NC(=O)[C@]12CCC(C)(C)C[C@H]1C1=CC[C@@H]3[C@@]4(C)Cc5nccnc5C(C)(C)[C@@H]4CC[C@@]3(C)[C@]1(C)CC2)C(=O)O`, the Activity is reported as 44.8% in experiment [1], 21.2% in experiment [2], 100.2% in experiment [3] and 93.9% in experiment [5].
On to `COC(=O)[C@H](Cc1ccccc1)NC(=O)[C@]12CCC(C)(C)C[C@H]1C1=CC[C@@H]3[C@@]4(C)Cc5c([nH]c6ccccc56)C(C)(C)[C@@H]4CC[C@@]3(C)[C@]1(C)CC2`, for which the Activity in experiment [1] is recorded as 0%; in experiment [2], 69.2%; in experiment [4], 79.8%.
Take `COC(=O)[C@H](C)NC(=O)[C@]12CCC(C)(C)C[C@H]1C1=CC[C@@H]3[C@@]4(C)Cc5nccnc5C(C)(C)[C@@H]4CC[C@@]3(C)[C@]1(C)CC2`: the Activity in experiment [1] worked out at 3.4%; in experiment [2], 3.8%; in experiment [3] it was 93.7%; in experiment [5] it was 96.1%.
With `COC(=O)CNC(=O)[C@]12CCC(C)(C)C[C@H]1C1=CC[C@@H]3[C@@]4(C)Cc5nc6ccccc6nc5C(C)(C)[C@@H]4CC[C@@]3(C)[C@]1(C)CC2`, the Activity in experiment [1] is on record as 20.7%; in experiment [2] it was 31.9%; in experiment [3], 34.1%; in experiment [4], 94.3%.
For `C[C@H](NC(=O)[C@]12CCC(C)(C)C[C@H]1C1=CC[C@@H]3[C@@]4(C)Cc5c([nH]c6ccc(Cl)cc56)C(C)(C)[C@@H]4CC[C@@]3(C)[C@]1(C)CC2)C(=O)O`, the Activity in experiment [1] is 0%; in experiment [2], 1.4%; in experiment [3] it was 98.3%; in experiment [4], 0%; in experiment [5], 93.4%.
Consider `CC1(C)CC[C@]2(C(=O)N[C@@H](Cc3ccccc3)C(=O)O)CC[C@]3(C)C(=CC[C@@H]4[C@@]5(C)Cc6c([nH]c7ccc(Cl)cc67)C(C)(C)[C@@H]5CC[C@]43C)[C@@H]2C1`, for which the Activity turned out to be 0% in experiment [1], 77.8% in experiment [2] and 0% in experiment [4].
Consider `CC1(C)CC[C@]2(C(=O)O)CC[C@]3(C)C(=CC[C@@H]4[C@@]5(C)Cc6nccnc6C(C)(C)[C@@H]5CC[C@]43C)[C@@H]2C1`, for which the Activity in experiment [1] amounted to 1.8%; in experiment [2], 16.4%; in experiment [3] it was 97.6%; in experiment [4], 93.2%.
Take `NCCCC(O)(P(=O)([O-])O)P(=O)(O)O.[Na+]` [ALENDRONATE SODIUM]: the Activity is given as 0% in experiment [1], 3.5% in experiment [2] and 47.5% in experiment [3].
For `CC1(C)CC[C@]2(C(=O)O)CC[C@]3(C)C(=CC[C@@H]4[C@@]5(C)CC[C@H](O)C(C)(C)[C@@H]5CC[C@]43C)[C@@H]2C1` [OLEANOLIC_ACID], the Activity stood at 19.4% in experiment [1], 89.5% in experiment [2], 97.5% in experiment [3] and 98% in experiment [4].
